Source: ChEMBL document CHEMBL1154330, “Cucurbitane-type triterpenoids from the African plant Momordica balsamina” (J Nat Prod, 2009)

System: MCF7
Assay: Cytotoxicity against human MCF7 cells after 24 hrs by MTT assay
Assay type: functional, cell-based
Details: MCF7, 24 h

SMILES	IC50
C[C@H](C/C=C/C(C)(C)O)[C@H]1CC[C@@]2(C)[C@@H]3[C@@H](O)C=C4[C@@H](CC[C@H](O)C4(C)C)[C@]3(C)CC[C@]12C	45.3 µM
C=C(C)[C@@H](O)[C@H](O)C[C@@H](C)[C@H]1CC[C@@]2(C)[C@@H]3[C@@H](O)C=C4[C@@H](CC[C@H](O)[C@]4(C)CO)[C@]3(C)CC[C@]12C [BALSAMINAPENTAOL A]	47 µM
CC(C)=C[C@H](O)C[C@@H](C)[C@H]1CC[C@@]2(C)[C@@H]3[C@@H](O)C=C4[C@@H](CC[C@H](O)[C@]4(C)CO)[C@]3(C)CC[C@]12C [BALSAMINOL A]	40 µM
CO[C@H]1C=C2[C@@H](CC[C@H](O)[C@]2(C)CO)[C@]2(C)CC[C@]3(C)[C@@H]([C@H](C)C[C@@H](O)C=C(C)C)CC[C@@]3(C)[C@H]12 [BALSAMINOL B]	55.3 µM
C[C@H](C/C=C/C(C)(C)O)[C@H]1CC[C@@]2(C)[C@@H]3[C@@H](O)C=C4[C@@H](CC[C@H](O)C4(C)C)[C@]3(C)C[C@@H](O)[C@]12C [CUCURBALSAMINOL A]	> 133 µM
COc1cccc2c1C(=O)c1c(O)c3c(c(O)c1C2=O)C[C@@](O)(C(=O)CO)C[C@@H]3O[C@H]1C[C@H](N)[C@H](O)[C@H](C)O1 [DOXORUBICIN]	0.92 µM
CC(C)=C[C@H](O)C[C@@H](C)[C@H]1CC[C@@]2(C)[C@@H]3C=C[C@@]45OC[C@]3(CC[C@]12C)[C@@H]4CC[C@H](O)C5(C)C [KARAVILAGENIN E]	30.7 µM
